Assay results from patent US11465994B2, “MGluR7 agonist compounds for treating mGluR7-regulated diseases, disorders, or conditions” (Takeda Pharmaceutical Company Limited, priority 2016, dated 2022).

The compounds below were run against T1, mGluR7 (Homo sapiens, UniProt Q14831) (assay: cAMP CRE-luciferase reporter gene assay (Steady Glo) in CHO-CRE-luc cells stably expressing human mGluR7). Settings: reduction of forskolin stimulated cAMP (luminescence); CHO CRE-luc human mGluR7; read-out: EC50.
Type: cell-based
Design: expressed in transfected cells
Description: Compound activities were determined in CHO-CRE-luc cells stably expressing hu/mo mGluR7, using a cAMP reporter gene assay (Steady Glo, Promega). Selectivity was assessed in stable CHO-mGluR4 cells (DiscoverX) and CHO-mGluR8 transients using an HTRF cAMP assay (Cisbio).
The ability of the test compounds to activate mGluR7 was determined by their ability to reduce forskolin stimulated cAMP production. Compounds were assessed in a CRE-directed luciferase reporter gene assay, using a stable CHO cell line expressing the CRE-luc reporter and human mGluR7 genes. In this cell line, production of cAMP stimulated the transcription of the luciferase gene and luciferase activity was then measured in a luminescent enzyme assay (Steady Glo assay; Promega E2550). Activation of mGluR7 decreased the forskolin stimulated luminescence signal.
The day prior to the assay, compounds were serially diluted in DMSO (100× final assay concentration (FAC)), in 384-well plates which were then stored in the dark at room temperature (RT) until use. Cells were seeded at 12.5 k/well in white, clear bottom 384-well plates (Corning 3707) and left for one hour at RT followed by an overnight incubation (37° C.). The following day, the DMSO compound plate was diluted 1:20 (5×FAC) in Opti-MEM I (Life Technologies 11058021). The growth media was removed from the cell plate and replaced with 15 μl Opti-MEM I, followed by a 5 μl addition from the 5× compound plate and a fifteen minute incubation (37° C.). Forskolin (Sigma F3917) was then added to the wells (5 μl of 2.5 μM) and the plate was incubated for five hours (37° C.). During this incubation, the Steady Glo Substrate reagent was warmed to 37° C. Aliquots (11 ml; stored at −20° C.) of this reagent were prepared by dissolving the contents of 1 vial of lyophilised substrate in 100 ml Steady-Glo buffer. A 25 μl addition of the substrate was made to all wells and the plate was incubated for thirty minutes at RT, on a plate shaker (300 rpm; in the dark). Luminescence was then measured using the EnVision Multilabel Reader (Perkin Elmer).
Compound activity was examined using a 10-point, half log concentration-response range and each concentration was tested in duplicate wells. Luminescence values were normalised to ‘maximum’ (forskolin alone) and ‘minimum’ (forskolin in the presence of tool mGluR7 agonist) controls.

T1 sequence (Q14831 35-915): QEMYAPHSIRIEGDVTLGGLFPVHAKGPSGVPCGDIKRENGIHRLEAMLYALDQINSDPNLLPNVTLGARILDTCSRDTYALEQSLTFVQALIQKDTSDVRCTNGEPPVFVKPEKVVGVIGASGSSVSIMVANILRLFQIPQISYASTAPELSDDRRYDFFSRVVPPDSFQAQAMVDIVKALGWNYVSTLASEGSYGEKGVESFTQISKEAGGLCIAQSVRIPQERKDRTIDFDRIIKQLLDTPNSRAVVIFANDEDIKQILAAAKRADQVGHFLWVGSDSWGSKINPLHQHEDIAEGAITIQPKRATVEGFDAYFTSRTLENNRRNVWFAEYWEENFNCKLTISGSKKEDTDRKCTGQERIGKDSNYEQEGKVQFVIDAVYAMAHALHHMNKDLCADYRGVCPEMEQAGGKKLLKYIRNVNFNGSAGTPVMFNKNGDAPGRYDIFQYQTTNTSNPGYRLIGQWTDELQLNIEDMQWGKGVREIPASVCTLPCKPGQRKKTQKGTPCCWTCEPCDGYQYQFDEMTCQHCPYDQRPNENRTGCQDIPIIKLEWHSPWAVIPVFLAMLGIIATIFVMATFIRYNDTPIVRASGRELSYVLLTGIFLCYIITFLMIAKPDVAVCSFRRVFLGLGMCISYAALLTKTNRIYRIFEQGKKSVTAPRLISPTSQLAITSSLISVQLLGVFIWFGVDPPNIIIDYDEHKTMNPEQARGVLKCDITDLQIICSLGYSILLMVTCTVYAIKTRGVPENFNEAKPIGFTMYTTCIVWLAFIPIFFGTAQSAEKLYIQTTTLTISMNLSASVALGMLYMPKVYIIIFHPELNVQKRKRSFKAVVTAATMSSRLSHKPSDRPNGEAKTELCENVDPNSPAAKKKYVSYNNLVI

SMILES	EC50
CO[C@@H]1c2ccccc2OC[C@H]1NC(=O)C(Oc1ccnc(C)n1)c1ccc(F)cc1F (relative stereo) [Example 31, 2-(2,4-difluorophenyl)-N-((trans)-4-methoxy-3,4-dihydro-2H-1-benzopyran-3-yl)-2-[(2-methylpyrimidin-4-yl)oxy]acetamide]	54 nM
CO[C@@H]1c2ccccc2OC[C@H]1NC(=O)C(c1ccc(F)cc1F)n1ccccc1=O (relative stereo) [Example 32, 2-(2,4-difluorophenyl)-N-((trans)-4-methoxy-3,4-dihydro-2H-1-benzopyran-3-yl)-2-(2-oxo-1,2-dihydropyridin-1-yl)acetamide]	300 nM
C[C@H](C(=O)NC1COc2ccccc2C1O)c1ccccc1 (single isomer, unassigned) [Example 1]	874 nM
C[C@H](C(=O)NC1COc2ccccc2C1O)c1ccccc1 (single isomer, unassigned) [Example 2]	96 nM
C[C@H](C(=O)NC1COc2ccccc2C1O)c1ccccc1 (single isomer, unassigned) [Example 5]	68 nM
C[C@H](C(=O)NC1COc2ccccc2C1O)c1ccccc1 (single isomer, unassigned) [Example 6]	101 nM
C[C@H](C(=O)NC1COc2ccccc2C1(C)O)c1ccccc1 (single isomer, unassigned) [Example 7]	911 nM
C[C@H](C(=O)NC1COc2ccccc2C1(C)O)c1ccccc1 (single isomer, unassigned) [Example 8]	274 nM
CNC1c2ccccc2OCC1NC(=O)[C@@H](C)c1ccccc1 (single isomer, unassigned) [Example 9]	4990 nM
CNC1c2ccccc2OCC1NC(=O)[C@@H](C)c1ccccc1 (single isomer, unassigned) [Example 10]	1650 nM
COC1c2ccccc2OCC1NC(=O)[C@@H](C)c1ccccc1 (single isomer, unassigned) [Example 11]	55 nM
C[C@H](C(=O)NC1COc2ccccc2C1S(C)(=O)=O)c1ccc(F)cc1 (single isomer, unassigned) [Example 17]	28 nM
C[C@H](C(=O)NC1COc2ccccc2C1S(C)(=O)=O)c1ccc(Cl)cc1 (single isomer, unassigned) [Example 21]	33 nM
CNC1c2ccccc2OCC1NC(=O)[C@@H](C)c1ccc(F)cc1 (single isomer, unassigned) [Example 22]	69 nM
CNC1c2ccccc2OCC1NC(=O)[C@@H](C)c1ccc(F)cc1 (single isomer, unassigned) [Example 23]	110 nM
CNC(=O)c1ccccc1C(=O)NC1c2ccccc2OCC1NC(=O)[C@@H](C)c1ccc(F)cc1 (single isomer, unassigned) [Example 33]	700 nM
CNC(=O)c1ccccc1C(=O)NC1c2ccccc2OCC1NC(=O)[C@@H](C)c1ccc(F)cc1 (single isomer, unassigned) [Example 34]	97 nM
C[C@H](C(=O)NC1COc2ccccc2C1N1CCCC1)c1ccc(F)cc1 (single isomer, unassigned) [Example 35]	62 nM
C[C@H](C(=O)NC1COc2ccccc2C1N1CCC1)c1ccc(F)cc1 (single isomer, unassigned) [Example 36]	33 nM
C[C@H](C(=O)NC1COc2ccccc2C1N(C)C)c1ccc(F)cc1 (single isomer, unassigned) [Example 37]	55 nM
C[C@H](C(=O)NC1COc2ccccc2C1N1CCC(F)(F)C1)c1ccc(F)cc1 (single isomer, unassigned) [Example 38]	30 nM
C[C@H](C(=O)NC1COc2ccc(F)cc2C1O)c1ccccc1 (stereo in doubt) [Example 3, (2S)—N-((cis)-6-fluoro-4-hydroxy-3,4-dihydro-2H-1-benzopyran-3-yl)-2-phenylpropanamide]	1200 nM
CNC1c2ccccc2OCC1NC(=O)[C@@H](C)c1ccccc1 (stereo in doubt) [Example 14, (2S)—N-[(trans)-4-(methylamino)-3,4-dihydro-2H-1-benzopyran-3-yl]-2-phenylpropanamide]	65 nM
C[C@H](C(=O)NC1COc2ccccc2C1=O)c1ccccc1 (stereo partly drawn) [Example 4, (2S)—N-(4-oxo-3,4-dihydro-2H-1-benzopyran-3-yl)-2-phenylpropanamide]	860 nM

Further lines, results first:

EC50	SMILES
27 nM	CO[C@@H]1c2ccccc2OC[C@H]1NC(=O)C(c1ccc(F)cc1F)N1CC(OC(F)(F)F)C1 (relative stereo) [Example 25, 2-(2,4-difluorophenyl)-N-((trans)-4-methoxy-3,4-dihydro-2H-1-benzopyran-3-yl)-2-[3-(trifluoromethoxy)azetidin-1-yl]acetamide]
26 nM	C[C@H](C(=O)NC1COc2ccccc2C1S(C)(=O)=O)c1ccccc1 (single isomer, unassigned) [Example 13]
23 nM	COC1c2ccccc2OCC1NC(=O)[C@@H]1c2ccccc2CC(=O)N1CCCF (single isomer, unassigned) [Example 26]
23 nM	C[C@H](C(=O)NC1COc2ccccc2C1N1CCOCC1)c1ccc(F)cc1 (single isomer, unassigned) [Example 39]
22 nM	COC1c2ccccc2OCC1NC(=O)[C@@H]1c2ccccc2CC(=O)N1CCCF (single isomer, unassigned) [Example 27]
20 nM	CO[C@@H]1c2ccccc2OC[C@H]1NC(=O)C(c1ccc(F)cc1)N1CC(OC(F)(F)F)C1 (relative stereo) [Example 24, 2-(4-fluorophenyl)-N-((trans)-4-methoxy-3,4-dihydro-2H-1-benzopyran-3-yl)-2-[3-(trifluoromethoxy)azetidin-1-yl]acetamide]
15 nM	COC1c2ccccc2OCC1NC(=O)[C@@H]1c2ccccc2CC(=O)N1CC1CC1 (single isomer, unassigned) [Example 18]
14 nM	CO[C@@H]1c2ccccc2OC[C@H]1NC(=O)C1c2ccccc2CC(=O)N1CC1CCOCC1 (relative stereo) [Example 28, N-((trans)-4-methoxy-3,4-dihydro-2H-1-benzopyran-3-yl)-2-[(oxan-4-yl)methyl]-3-oxo-1,2,3,4-tetrahydroisoquinoline-1-carboxamide]
14 nM	COC1c2ccccc2OCC1NC(=O)[C@@H]1c2ccccc2CC(=O)N1CC1CC1 (stereo in doubt) [Example 15, (1S)-2-(cyclopropylmethyl)-N-((trans)-4-methoxy-3,4-dihydro-2H-1-benzopyran-3-yl)-3-oxo-1,2,3,4-tetrahydroisoquinoline-1-carboxamide]
11 nM	CO[C@@H]1c2ccccc2OC[C@H]1NC(=O)C(OCC1CC1)c1ccc(F)cc1 (relative stereo) [Example 30, 2-(cyclopropylmethoxy)-2-(4-fluorophenyl)-N-((trans)-4-methoxy-3,4-dihydro-2H-1-benzopyran-3-yl)acetamide]
10 nM	C[C@H](C(=O)NC1COc2ccccc2C1S(C)(=O)=O)c1ccc(Cl)cc1 (single isomer, unassigned) [Example 20]
8 nM	CO[C@@H]1c2ccccc2OC[C@H]1NC(=O)C1c2ccccc2CC(=O)N1Cc1ccccn1 (relative stereo) [Example 29, N-((trans)-4-methoxy-3,4-dihydro-2H-1-benzopyran-3-yl)-3-oxo-2-[(pyridin-2-yl)methyl]-1,2,3,4-tetrahydroisoquinoline-1-carboxamide]
7 nM	C[C@H](C(=O)NC1COc2ccccc2C1S(C)(=O)=O)c1ccccc1 (single isomer, unassigned) [Example 12]
6 nM	COC1c2ccccc2OCC1NC(=O)[C@@H]1c2ccccc2CC(=O)N1CC1CC1 (single isomer, unassigned) [Example 19]

Each compound was assayed against T1, mGluR7 (assay: Kinetic impedance assay (desensitization) in stable CHO-mGluR7 cells, response to tool activator CPD A after pre-treatment). Settings: pre-treatment 1 hour (EC80), FIG. 1B.
Type: cell-based
Description: Stable CHO-mGluR7 cells (DiscoverX) were pre-incubated with compounds (EC80, 1 h), washed and after 30 min, impedance changes upon addition of a tool mGluR7 activator (CPD A) were determined (Cellkey, Molecular Devices).

SMILES	EC50 of subsequent response to CPD A increased
Cl.Cl.c1ccc(C(NCCNC(c2ccccc2)c2ccccc2)c2ccccc2)cc1 [AMN082, N,N′-dibenzhydrylethane-1,2-diamine dihydrochloride]	5 fold

Same assay, conditions: pre-treatment 1 hour (EC80), FIG. 1B; read-out: Emax of subsequent response to CPD A reduced by

SMILES	Emax
Cl.Cl.c1ccc(C(NCCNC(c2ccccc2)c2ccccc2)c2ccccc2)cc1 [AMN082, N,N′-dibenzhydrylethane-1,2-diamine dihydrochloride]	75%
